One data set in a line: Perfume component interaction with cyclodextrin (CD interaction). As to conditions: perfume component complexing with cyclodextrin. It is filed as physicochemical. An excerpt: The following table illustrates the molecular weight property of some of the preferred perfume versus non-preferred perfume components.
For the compound `CC(C=O)Cc1ccc(C(C)C)cc1` (centres unmarked) [Cymal], the CD interaction entry is reported as “strong”.

For the compound `CCOC(=O)c1ccccc1C(=O)OCC` [Diethyl Phthalate], the CD interaction result is “weak”.

For `CC(=O)OC1CC2CC1C1CC=CC21` (centres unmarked) [Flor Acetate], the CD interaction entry is reported as “strong”.

As to `CCC(=O)OC1CC2CC1C1CC=CC21` (centres unmarked) [Frutene], the CD interaction entry is given as “strong”.

On to `CC1COCc2cc3c(cc21)C(C)(C)C(C)C3(C)C` (centres unmarked) [Galaxolide], for which the CD interaction result was “weak”.

Take `CCCCCCOC(=O)c1ccccc1O` [Hexyl Salicylate]: the CD interaction entry is given as “weak”.

On to `CCCCCCC(C=O)=Cc1ccccc1` [Hexyl cinnamic Aldehyde], for which the CD interaction result is recorded as “weak”.

On to `CC(=O)C1(C)CC2=C(CCCC2(C)C)CC1C` (centres unmarked) [Iso-E Super], for which the CD interaction result is on record as “weak”.

With `CCCCCCCCCCCCCC(=O)OC(C)C` [Iso-propyl Myristate], the CD interaction entry is reported as “weak”.

With `CC(=O)C(C)=C(C)C(C)C(C)(C)C` (centres unmarked) [Koavone], the CD interaction result is recorded as “strong”.

Regarding `CC(C=O)Cc1ccc(C(C)(C)C)cc1` (centres unmarked) [Lilial, p-t-bucinal], the CD interaction result is on record as “strong”.

On to `CC(C)(O)CCCC1=CCC(C=O)CC1` (centres unmarked) [Lyral], for which the CD interaction result is listed as “weak”.

As to `CCCCCC1C(=O)CCC1CC(=O)OC` (centres unmarked) [Methyl Dihydro Jasmonate], the CD interaction result is given as “weak”.

For the compound `O=C(Cc1ccccc1)OCCc1ccccc1` [Phenyl-Ethyl-Phenyl Acetate], the CD interaction entry is on record as “weak”.

As to `CC(=O)OC(C)(C)C1CC=C(C)CC1` (centres unmarked) [Terpinyl Acetate], the CD interaction result is reported as “significant”.

`CCC(C)(O)CCCC(C)C` (centres unmarked) [Tetrahydrolinalol]: the CD interaction result is given as “significant”.

`CC(=O)OC1CCC(C(C)(C)C)CC1` (centres unmarked) [Vertenex, para-tert-butylcyclohexyl acetate]: the CD interaction result is on record as “strong”.

As to `CC(=O)/C=C/C1C(C)=CCCC1(C)C` (centres unmarked) [a-ionone], the CD interaction entry is on record as “strong”.

For a-Me Ionone, the CD interaction entry is listed as “strong”.

Assay in a further data set: not given
As to conditions: cited from earlier work.
Turning to `OCCOc1ccccc1` [2-phenoxyethanol], the solubility in water result is on record as “about 2.67%”.

Turning to `OCCc1ccccc1` [2-phenylethanol], the solubility in water result is reported as “about 2%”.

`O=[N+]([O-])C1(Br)COCOC1` [Bronidox L, 5-bromo-5-nitro-1,3-dioxane]: the solubility in water result is on record as “about 0.46%”.

For the compound `CC1(C)C(=O)N(CO)C(=O)N1CO` [DMDM hydantoin, 1,3-bis(hydroxymethyl)-5,5-dimethyl-2,4-imidazolidinedione], the solubility in water entry was “more than 50%”.

As for `ClC=CC[N+]12CN3CN(CN(C3)C1)C2.[Cl-]` [Dowicil 200, 1-(3-Chlorallyl)-3,5,7-triaza-1-azoniaadamantane chloride], the “solubility in water” value is reported as “freely soluble”.

Take `OCc1ccccc1` [benzyl alcohol]: the solubility in water entry is recorded as “about 4%”.

With `[H]/N=C(\N/C(=N/[H])NCCCCCCNC(=N)NC(=N)Nc1ccc(Cl)cc1)Nc1ccc(Cl)cc1` [chlorhexidine diacetate, 1,1′-hexamethylene bis(5-(p-chlorophenyl)biguanide), reference compound], the solubility in water result is “about 1.8%”.

As to `[H]/N=C(\N/C(=N/[H])NCCCCCCNC(=N)NC(=N)Nc1ccc(Cl)cc1)Nc1ccc(Cl)cc1` [chlorhexidine digluconate, 1,1′-hexamethylene bis(5-(p-chlorophenyl)biguanide), reference compound], the solubility in water result is “about 70%”.

Regarding `CC(C)(O)C(Cl)(Cl)Cl` [chlorobutanol, 1,1,1-Trichloro-2-methylpropan-2-ol], the solubility in water result was “about 0.8%”.

As for `[Na+].[O-][n+]1ccccc1[S-]` [sodium pyrithione], the solubility in water result is “about 50%”.

Source of the values: patent US6785989B2, “Methods and apparatus for removal of wrinkles from fabrics” (The Procter & Gamble Company, priority 2000, dated 2004).
